Reference: ChEMBL document CHEMBL1201861, “Genomics of Drug Sensitity in Cancer screening data, Wellcome Trust Sanger Institute”
pIC50: −log10 of the molar value.

Tests used:
Assay in all cases: cells
COLO-829 = type: functional, cell-based, Homo sapiens; settings: Homo sapiens, COLO-829
Description: SANGER: Inhibition of human COLO-829 cell growth in a cell viability assay.

Calu-6 = type: functional, cell-based, Homo sapiens; settings: Homo sapiens, Calu-6;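 further: growth of human Calu-6 cells, read out by a cell viability assay, IC50 marking inhibition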
Description: SANGER: Inhibition of human Calu-6 cell growth in a cell viability assay.

D-263MG = type: functional, cell-based, Homo sapiens; settings: Homo sapiens, D-263MG
Description: SANGER: Inhibition of human D-263MG cell growth in a cell viability assay.

DEL = type: functional, cell-based, Homo sapiens; settings: Homo sapiens, DEL;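 further: growth inhibition of the human DEL cell line, read out with a cell viability assay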
Description: SANGER: Inhibition of human DEL cell growth in a cell viability assay.

DJM-1 = type: functional, cell-based, Homo sapiens; settings: Homo sapiens, DJM-1;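 further: growth inhibition of human DJM-1 cells, read out by a cell viability assay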
Description: SANGER: Inhibition of human DJM-1 cell growth in a cell viability assay.

DMS-114 = type: functional, cell-based, Homo sapiens; settings: Homo sapiens, DMS-114
ES6 = type: functional, cell-based; settings: Homo sapiens;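 further: growth inhibition of human ES6 cells, read out with a cell viability assay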
Description: SANGER: Inhibition of human ES6 cell growth in a cell viability assay.

ES8 = type: functional, cell-based, Homo sapiens; settings: Homo sapiens, ES8;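 further: growth inhibition of human ES8 cells, read out with a cell viability assay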
Description: SANGER: Inhibition of human ES8 cell growth in a cell viability assay.

ETK-1 = type: functional, cell-based, Homo sapiens; settings: Homo sapiens, ETK-1;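 further: growth inhibition of human ETK-1 cells, read out with a cell viability assay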
Description: SANGER: Inhibition of human ETK-1 cell growth in a cell viability assay.

EW-1 = type: functional, cell-based, Homo sapiens; settings: Homo sapiens, EW-1
Description: SANGER: Inhibition of human EW-1 cell growth in a cell viability assay.

EW-18 = type: functional, cell-based, Homo sapiens; settings: Homo sapiens, EW-18; read-out: IC50;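 further: growth inhibition of EW-18 cells, read out by a cell viability assay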
Description: SANGER: Inhibition of human EW-18 cell growth in a cell viability assay.

GCIY = type: functional, cell-based, Homo sapiens; settings: Homo sapiens, GCIY;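 further: growth inhibition of the human GCIY cell line, read out by a cell viability assay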
Description: SANGER: Inhibition of human GCIY cell growth in a cell viability assay.

HAL-01 = type: functional, cell-based, Homo sapiens; settings: Homo sapiens, HAL-01;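 further: growth inhibition of human HAL-01 cells, read out with a cell viability assay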
Description: SANGER: Inhibition of human HAL-01 cell growth in a cell viability assay.

IST-MES1 = type: functional, cell-based, Homo sapiens; settings: Homo sapiens, IST-MES1;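 further: growth inhibition of IST-MES1 cells, measured with a cell viability assay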
Description: SANGER: Inhibition of human IST-MES1 cell growth in a cell viability assay.

IST-SL1 = type: functional, cell-based, Homo sapiens; settings: Homo sapiens, IST-SL1;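 further: growth inhibition of human IST-SL1 cells, read out with a cell viability assay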
Description: SANGER: Inhibition of human IST-SL1 cell growth in a cell viability assay.

KALS-1 = type: functional, cell-based, Homo sapiens; settings: Homo sapiens, KALS-1; read-out: IC50;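 further: growth inhibition of KALS-1 cells, determined with a cell viability assay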
Description: SANGER: Inhibition of human KALS-1 cell growth in a cell viability assay.

KM12 = type: functional, cell-based, Homo sapiens; settings: Homo sapiens, KM12;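 further: KM12 cell growth inhibition, read out with a cell viability assay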
Description: SANGER: Inhibition of human KM12 cell growth in a cell viability assay.

KNS-81-FD = type: functional, cell-based, Homo sapiens; settings: Homo sapiens, KNS-81-FD;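 further: growth inhibition of KNS-81-FD cells, read out with a cell viability assay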
Description: SANGER: Inhibition of human KNS-81-FD cell growth in a cell viability assay.

KS-1 = type: functional, cell-based; settings: Homo sapiens;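 further: growth inhibition of KS-1 cells, read out with a cell viability assay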
Description: SANGER: Inhibition of human KS-1 cell growth in a cell viability assay.

L-363 = type: functional, cell-based, Homo sapiens; settings: Homo sapiens, L-363
Description: SANGER: Inhibition of human L-363 cell growth in a cell viability assay.

L-428 = type: functional, cell-based, Homo sapiens; settings: Homo sapiens, L-428
Description: SANGER: Inhibition of human L-428 cell growth in a cell viability assay.

LB831-BLC = type: functional, cell-based, Homo sapiens; settings: Homo sapiens, LB831-BLC;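 further: growth inhibition of LB831-BLC cells, read out with a cell viability assay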
Description: SANGER: Inhibition of human LB831-BLC cell growth in a cell viability assay.

LOX IMVI = type: functional, cell-based, Homo sapiens; settings: Homo sapiens, LOX IMVI
Description: SANGER: Inhibition of human LOXIMVI cell growth in a cell viability assay.

LS-513 = type: functional, cell-based, Homo sapiens; settings: Homo sapiens, LS-513
Description: SANGER: Inhibition of human LS-513 cell growth in a cell viability assay.

MEG-01 = type: functional, cell-based, Homo sapiens; settings: Homo sapiens, MEG-01;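 further: growth inhibition of MEG-01 cells, read out by a cell viability assay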
Description: SANGER: Inhibition of human MEG-01 cell growth in a cell viability assay.

MHH-PREB-1 = type: functional, cell-based, Homo sapiens; settings: Homo sapiens, MHH-PREB-1;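 further: cell viability assay measuring inhibition of proliferation of human MHH-PREB-1 cells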
Description: SANGER: Inhibition of human MHH-PREB-1 cell growth in a cell viability assay.

MZ2-MEL = type: functional, cell-based, Homo sapiens; settings: Homo sapiens, MZ2-MEL;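 further: growth inhibition of MZ2-MEL cells read out with a cell viability assay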
Description: SANGER: Inhibition of human MZ2-MEL cell growth in a cell viability assay.

MZ7-mel = type: functional, cell-based, Homo sapiens; settings: Homo sapiens, MZ7-mel;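 further: growth inhibition of human MZ7-mel cells, measured by a cell viability assay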
Description: SANGER: Inhibition of human MZ7-mel cell growth in a cell viability assay.

Mo = type: functional, cell-based, Homo sapiens; settings: Homo sapiens, Mo
Description: SANGER: Inhibition of human Mo-T cell growth in a cell viability assay.

NCI-H82 = type: functional, cell-based, Homo sapiens; settings: Homo sapiens, NCI-H82;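 further: growth inhibition of NCI-H82 cells, measured with a cell viability readout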
Description: SANGER: Inhibition of human NCI-H82 cell growth in a cell viability assay.

ONS-76 = type: functional, cell-based, Homo sapiens; settings: Homo sapiens, ONS-76;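 further: growth inhibition of human ONS-76 cells, read out with a cell viability assay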
Description: SANGER: Inhibition of human ONS-76 cell growth in a cell viability assay.

OVCAR-4 = type: functional, cell-based, Homo sapiens; settings: Homo sapiens, OVCAR-4;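 further: growth inhibition of human OVCAR-4 cells, measured with a cell viability assay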
Description: SANGER: Inhibition of human OVCAR-4 cell growth in a cell viability assay.

QIMR-WIL = type: functional, cell-based, Homo sapiens; settings: Homo sapiens, QIMR-WIL;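 further: growth inhibition of QIMR-WIL cells, read out with a cell viability assay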
Description: SANGER: Inhibition of human QIMR-WIL cell growth in a cell viability assay.

RS4-11 = type: functional, cell-based, Homo sapiens; settings: Homo sapiens, RS4-11;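 further: growth inhibition of RS4-11 cells, read out by a cell viability assay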
Description: SANGER: Inhibition of human RS4-11 cell growth in a cell viability assay.

Ramos-2G6-4C10 = type: functional, cell-based, Homo sapiens; settings: Homo sapiens, Ramos-2G6-4C10;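 further: growth inhibition of the cell line, measured by a cell viability read-out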
Description: SANGER: Inhibition of human Ramos-2G6-4C10 cell growth in a cell viability assay.

SCC-15 = type: functional, cell-based, Homo sapiens; settings: Homo sapiens, SCC-15;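 further: growth inhibition of SCC-15 cells, read out with a cell viability assay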
Description: SANGER: Inhibition of human SCC-15 cell growth in a cell viability assay.

SH-4 = type: functional, cell-based; settings: Homo sapiens;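 further: growth inhibition of SH-4 cells, read out with a cell viability assay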
Description: SANGER: Inhibition of human SH-4 cell growth in a cell viability assay.

SK-NEP-1 = type: functional, cell-based, Homo sapiens; settings: Homo sapiens, SK-NEP-1;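 further: growth inhibition of human SK-NEP-1 cells, read out by a cell viability assay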
Description: SANGER: Inhibition of human SK-NEP-1 cell growth in a cell viability assay.

SW684 = type: functional, cell-based, Homo sapiens; settings: Homo sapiens, SW684; read-out: IC50;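 further: growth inhibition of human SW684 cells, measured by a cell viability assay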
Description: SANGER: Inhibition of human SW684 cell growth in a cell viability assay.

A101D = type: functional, cell-based, Homo sapiens; settings: Homo sapiens, A101D;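 further: growth inhibition of the cell line, measured with a viability assay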
Description: SANGER: Inhibition of human A101D cell growth in a cell viability assay.

A704 = type: functional, cell-based; settings: Homo sapiens;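 further: growth inhibition of human A704 cells, read out with a cell viability assay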
Description: SANGER: Inhibition of human A704 cell growth in a cell viability assay.

BB65-RCC = type: functional, cell-based, Homo sapiens; settings: Homo sapiens, BB65-RCC;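 further: growth inhibition of the cell line, measured with a cell viability assay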
Description: SANGER: Inhibition of human BB65-RCC cell growth in a cell viability assay.

C2BBe1 = type: functional, cell-based, Homo sapiens; settings: Homo sapiens, C2BBe1;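 further: growth inhibition of C2BBe1 cells, read out through a viability assay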
Description: SANGER: Inhibition of human C2BBe1 cell growth in a cell viability assay.

C8166 = type: functional, cell-based, Homo sapiens; settings: Homo sapiens, C8166;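 further: growth inhibition of human C8166 cells measured by a cell viability assay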
Description: SANGER: Inhibition of human C8166 cell growth in a cell viability assay.

TE-5 = type: functional, cell-based, Homo sapiens; settings: Homo sapiens, TE-5;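 further: inhibition of cell growth, read out by a cell viability assay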
Description: SANGER: Inhibition of human TE-5 cell growth in a cell viability assay.

TE-6 = type: functional, cell-based, Homo sapiens; settings: Homo sapiens, TE-6;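 further: growth inhibition of TE-6 cells, read out with a cell viability assay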
Description: SANGER: Inhibition of human TE-6 cell growth in a cell viability assay.

TGBC1TKB = type: functional, cell-based, Homo sapiens; settings: Homo sapiens, TGBC1TKB;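 further: growth inhibition of TGBC1TKB cells, read out by a cell viability assay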
Description: SANGER: Inhibition of human TGBC1TKB cell growth in a cell viability assay.

TK-10 = type: functional, cell-based, Homo sapiens; settings: Homo sapiens, TK-10;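 further: growth inhibition of TK-10 cells, read out in a cell viability assay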
Description: SANGER: Inhibition of human TK10 cell growth in a cell viability assay.

no-10 = type: functional, cell-based, Homo sapiens; settings: Homo sapiens;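 further: growth inhibition of no-10 cells, read out with a cell viability assay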
Description: SANGER: Inhibition of human no-10 cell growth in a cell viability assay.

COLO-684 = type: functional, cell-based, Homo sapiens; settings: Homo sapiens, COLO-684
Description: SANGER: Inhibition of human COLO-684 cell growth in a cell viability assay.

`CC1=C(/C=C/C(C)=C/C=C/C(C)=C/C(=O)O)C(C)(C)CCC1` [TRETINOIN] gave a pIC50 (COLO-829) of under 5.00, a pIC50 (Calu-6) of under 5.00 and a pIC50 (D-263MG) of under 5.00. It also gave a pIC50 (DEL) of under 5.00, a pIC50 (DJM-1) of under 5.00 and a pIC50 (DMS-114) of under 5.00. The pIC50 (ES6) was under 5.00, the pIC50 (ES8) was under 5.00 and the pIC50 (ETK-1) was under 5.00. For the same molecule, the pIC50 (EW-1) was under 5.00, the pIC50 (EW-18) was under 5.00 and the pIC50 (GCIY) was under 5.00. For the same molecule, the pIC50 (HAL-01) was under 5.00, the pIC50 (IST-MES1) was under 5.00 and the pIC50 (IST-SL1) was under 5.00. For the same molecule, the pIC50 (KALS-1) was under 5.00, the pIC50 (KM12) was under 5.00 and the pIC50 (KNS-81-FD) was under 5.00. For the same molecule, the pIC50 (KS-1) was under 5.00, the pIC50 (L-363) was 5.68 and the pIC50 (L-428) was under 5.00. The pIC50 (LB831-BLC) was under 5.00, the pIC50 (LOX IMVI) was under 5.00 and the pIC50 (LS-513) was under 5.00. For the same molecule, the pIC50 (MEG-01) was 5.02, the pIC50 (MHH-PREB-1) was under 5.00 and the pIC50 (MZ2-MEL) was under 5.00. It also gave a pIC50 (MZ7-mel) of under 5.00, a pIC50 (Mo) of under 5.00 and a pIC50 (NCI-H82) of under 5.00. The pIC50 (ONS-76) was under 5.00, the pIC50 (OVCAR-4) was under 5.00 and the pIC50 (QIMR-WIL) was 5.18. It also gave a pIC50 (RS4-11) of 5.35, a pIC50 (Ramos-2G6-4C10) of under 5.00 and a pIC50 (SCC-15) of 5.03. The pIC50 (SH-4) was under 5.00, the pIC50 (SK-NEP-1) was 6.18 and the pIC50 (SW684) was under 5.00. The pIC50 (A101D) was under 5.00, the pIC50 (A704) was under 5.00 and the pIC50 (BB65-RCC) was under 5.00. The pIC50 (C2BBe1) was under 5.00, the pIC50 (C8166) was under 5.00 and the pIC50 (TE-5) was under 5.00. The pIC50 (TE-6) was under 5.00, the pIC50 (TGBC1TKB) was under 5.00 and the pIC50 (TK-10) was under 5.00. It also gave a pIC50 (no-10) of under 5.00 and a pIC50 (COLO-684) of under 5.00.

With `NC(=O)c1ccc(N(C(N)=O)c2c(F)cccc2F)nc1-c1ccc(F)cc1F` [VX-702] the pIC50 (COLO-829) was under 5.70, the pIC50 (Calu-6) was under 5.70 and the pIC50 (D-263MG) was under 5.70. It also gave a pIC50 (DEL) of under 5.70, a pIC50 (DJM-1) of under 5.70 and a pIC50 (DMS-114) of under 5.70. It also gave a pIC50 (ES6) of under 5.70, a pIC50 (ES8) of under 5.70 and a pIC50 (ETK-1) of under 5.70. It also gave a pIC50 (EW-1) of under 5.70, a pIC50 (EW-18) of 6.13 and a pIC50 (GCIY) of under 5.70. The pIC50 (HAL-01) was under 5.70, the pIC50 (IST-MES1) was under 5.70 and the pIC50 (IST-SL1) was under 5.70. The pIC50 (KALS-1) was under 5.70, the pIC50 (KM12) was under 5.70 and the pIC50 (KNS-81-FD) was under 5.70. For the same molecule, the pIC50 (KS-1) was under 5.70, the pIC50 (L-363) was under 5.70 and the pIC50 (L-428) was under 5.70. The pIC50 (LB831-BLC) was under 5.70, the pIC50 (LOX IMVI) was under 5.70 and the pIC50 (LS-513) was under 5.70. It also gave a pIC50 (MEG-01) of under 5.70, a pIC50 (MHH-PREB-1) of under 5.70 and a pIC50 (MZ2-MEL) of under 5.70. It also gave a pIC50 (MZ7-mel) of under 5.70, a pIC50 (Mo) of under 5.70 and a pIC50 (NCI-H82) of under 5.70. For the same molecule, the pIC50 (ONS-76) was under 5.70, the pIC50 (OVCAR-4) was under 5.70 and the pIC50 (QIMR-WIL) was under 5.70. For the same molecule, the pIC50 (RS4-11) was under 5.70, the pIC50 (Ramos-2G6-4C10) was under 5.70 and the pIC50 (SCC-15) was under 5.70. It also gave a pIC50 (SH-4) of under 5.70, a pIC50 (SK-NEP-1) of under 5.70 and a pIC50 (SW684) of under 5.70. The pIC50 (A101D) was under 5.70, the pIC50 (A704) was under 5.70 and the pIC50 (BB65-RCC) was under 5.70. For the same molecule, the pIC50 (C2BBe1) was under 5.70, the pIC50 (C8166) was under 5.70 and the pIC50 (TE-5) was under 5.70. It also gave a pIC50 (TE-6) of under 5.70, a pIC50 (TGBC1TKB) of under 5.70 and a pIC50 (TK-10) of under 5.70. The pIC50 (no-10) was under 5.70 and the pIC50 (COLO-684) was under 5.70.
